Data set [1] can be described thus: Octanol-water partition coefficient, log P of the compound. It counts as physicochemical.
Data set [2] deals with Nitrosomonas europaea. Briefly: Inhibition of Nitrosomonas europaea ATCC 25978-mediated nitrification activity assessed as nitrite nitrogen formation after 7 to 10 days by Griess-Ilosvay method. The following applies: read-out: pI50 (converted). The format is functional, organism-based.
Data set [3] concerns Nitrosomonas europaea. Description: Inhibition of Nitrosomonas europaea ATCC 25978-mediated nitrification activity assessed as nitrite nitrogen formation at 0.1 mg/kg after 7 to 10 days by Griess-Ilosvay method relative to control. It counts as functional. The following applies: values are per cent of control.
For data set [4], the system named is Nitrosomonas sp. TK794. Description: Inhibition of Nitrosomonas sp. TK794-mediated nitrification activity assessed as nitrite nitrogen formation at 0.5 mg/kg after 7 to 10 days by Griess-Ilosvay method relative to control. It counts as functional.
In data set [5] the test system is Nitrosomonas europaea. Briefly: Inhibition of Nitrosomonas europaea ATCC 25978-mediated nitrification activity assessed as nitrite nitrogen formation at 1 mg/kg after 7 to 10 days by Griess-Ilosvay method relative to control. The following applies: values are per cent of control. It counts as functional.
Data set [6] relates to Nitrosomonas sp. TK794. Briefly: Inhibition of Nitrosomonas sp. TK794-mediated nitrification activity assessed as nitrite nitrogen formation at 5 mg/kg after 7 to 10 days by Griess-Ilosvay method relative to control. It counts as functional.
In data set [7] the test system is Nitrosomonas europaea. Briefly: Inhibition of Nitrosomonas europaea ATCC 25978-mediated nitrification activity assessed as nitrite nitrogen formation at 0.5 mg/kg after 7 to 10 days by Griess-Ilosvay method relative to control. The format is functional. As to conditions: values are per cent of control.
Data set [8] relates to Nitrosomonas europaea. Description: Inhibition of Nitrosomonas europaea ATCC 25978-mediated nitrification activity assessed as nitrite nitrogen formation at 10 mg/kg after 7 to 10 days by Griess-Ilosvay method relative to control. It counts as functional.
The test system of data set [9] is Nitrosomonas sp. TK794. Description: Inhibition of Nitrosomonas sp. TK794-mediated nitrification activity assessed as nitrite nitrogen formation at 500 mg/kg after 7 to 10 days by Griess-Ilosvay method relative to control. It counts as functional.
Data set [10] deals with Nitrosomonas sp. TK794. Briefly: Inhibition of Nitrosomonas sp. TK794-mediated nitrification activity assessed as nitrite nitrogen formation at 1 mg/kg after 7 to 10 days by Griess-Ilosvay method relative to control. It counts as functional.

Regarding `COc1nc(N)nc(C(Cl)(Cl)Cl)n1`, the logP in data set [1] (read-out: logP) came to 2.36. For the same molecule, in the data set with Nitrosomonas europaea [2], the IC50 is 490 nM. In addition, the residual activity at 0.1 mg/kg in the data set on Nitrosomonas europaea [3] stood at 36.1%. Further, the inhibition in vivo at 0.5 mg/kg with Nitrosomonas sp. TK794 [4] was 29.5%.

On to `Nc1nc(-c2ccccc2)nc(C(Cl)(Cl)Cl)n1`, for which the logP in data set [1] (read-out: logP) amounted to 4.02. For the same molecule, the IC50 in the data set with Nitrosomonas europaea [2] was 363 nM. In addition, the residual activity at 1 mg/kg in the data set on Nitrosomonas europaea [5] turned out to be 20.8%. Besides, in the data set with Nitrosomonas sp. TK794 [6], the inhibition in vivo at 5 mg/kg is 49.7%.

For `CCCCN(C)c1nc(C)nc(C(Cl)(Cl)Cl)n1`, the lipophilicity (logP) in data set [1] (read-out: logP) worked out at 5.65. In addition, in the data set with Nitrosomonas europaea [2], the IC50 is 589 nM. In the data set with Nitrosomonas europaea [3], the residual activity at 0.1 mg/kg was 59.5%.

As for `CSc1nc(N)nc(C(Cl)(Cl)Cl)n1`, in the data set on Nitrosomonas europaea [7], the residual activity at 0.5 mg/kg came to 65.5%. The logP in data set [1] (read-out: logP) came to 2.96. Also, in the data set on Nitrosomonas europaea [2], the IC50 was 1260 nM. Also, the inhibition in vivo at 5 mg/kg in the data set on Nitrosomonas sp. TK794 [6] worked out at 27%.

As to `CCCNc1nc(C)nc(C(Cl)(Cl)Cl)n1`, the logP in data set [1] (read-out: logP) was determined as 4.56. For the same molecule, in the data set on Nitrosomonas europaea [2], the IC50 was 2000 nM. Besides, the residual activity at 1 mg/kg in the data set with Nitrosomonas europaea [5] came out at 42.9%.

For the molecule `CCCCNc1nc(C)nc(C(Cl)(Cl)Cl)n1`, the logP in [1] (read-out: logP) was 5.08. Also, in the data set with Nitrosomonas europaea [2], the IC50 was 1510 nM. In the data set with Nitrosomonas europaea [3], the residual activity at 0.1 mg/kg came to 79.5%.

For the molecule `CCCCCNc1nc(C)nc(C(Cl)(Cl)Cl)n1`, the logP in [1] (read-out: logP) was 5.61. For the same molecule, the IC50 with Nitrosomonas europaea [2] is 501 nM. In addition, in the data set on Nitrosomonas europaea [3], the residual activity at 0.1 mg/kg worked out at 61.5%.

Consider `CCCCCCNc1nc(C)nc(C(Cl)(Cl)Cl)n1`, for which the log partition coefficient (logP) in data set [1] (read-out: logP) is 6.13. The IC50 in the data set on Nitrosomonas europaea [2] is 417 nM. For the same molecule, in the data set with Nitrosomonas europaea [3], the residual activity at 0.1 mg/kg worked out at 54.5%.

Turning to `CCCCCCCNc1nc(C)nc(C(Cl)(Cl)Cl)n1`, the logP in data set [1] (read-out: logP) worked out at 6.66. For the same molecule, the IC50 in the data set with Nitrosomonas europaea [2] was 380 nM. In addition, the residual activity at 0.1 mg/kg in the data set on Nitrosomonas europaea [3] came to 44.9%.

Consider `CCCCCCCCCCCCNc1nc(C)nc(C(Cl)(Cl)Cl)n1`, for which the inhibition in vivo at 10 mg/kg in the data set on Nitrosomonas europaea [8] was 69.4%. The logP in data set [1] is 9.3. Moreover, the IC50 with Nitrosomonas europaea [2] is 45700 nM. In addition, the inhibition in vivo at 500 mg/kg in the data set with Nitrosomonas sp. TK794 [9] is 33.2%.

As to `Cc1nc(N)nc(C(Cl)(Cl)Cl)n1`, the logP in [1] (read-out: logP) came to 2.82. Also, the inhibition in vivo at 5 mg/kg with Nitrosomonas sp. TK794 [6] was 42.1%.

Regarding `CCCCCCCCCNc1nc(C)nc(C(Cl)(Cl)Cl)n1`, the logP in data set [1] (read-out: logP) was found to be 7.72. Also, the IC50 in the data set on Nitrosomonas europaea [2] was 3020 nM. Moreover, the residual activity at 1 mg/kg in the data set on Nitrosomonas europaea [5] stood at 59%. For the same molecule, in the data set on Nitrosomonas sp. TK794 [6], the inhibition in vivo at 5 mg/kg amounted to 55%.

For `Cc1nc(N(C)C)nc(C(Cl)(Cl)Cl)n1`, in [1] (read-out: logP), the logP is 4.07. Also, the inhibition in vivo at 1 mg/kg with Nitrosomonas sp. TK794 [10] was determined as 58.7%.

`CCCCN(CC)c1nc(C)nc(C(Cl)(Cl)Cl)n1`: the logP in data set [1] (read-out: logP) stood at 6.17. In addition, the IC50 with Nitrosomonas europaea [2] is 955 nM. Besides, in the data set on Nitrosomonas europaea [3], the residual activity at 0.1 mg/kg came to 52.9%.

As for `CCCCN(CCCC)c1nc(C)nc(C(Cl)(Cl)Cl)n1`, the lipophilicity (logP) in data set [1] (read-out: logP) came to 7.23. Besides, the IC50 with Nitrosomonas europaea [2] is 2090 nM. In the data set with Nitrosomonas europaea [5], the residual activity at 1 mg/kg is 56.2%. The inhibition in vivo at 1 mg/kg in the data set with Nitrosomonas sp. TK794 [10] is 56.8%.

For `Cc1nc(Nc2ccccc2)nc(C(Cl)(Cl)Cl)n1`, in data set [1] (read-out: logP), the logP was determined as 4.7. In addition, the IC50 with Nitrosomonas europaea [2] was 501 nM. The residual activity at 0.1 mg/kg with Nitrosomonas europaea [3] amounted to 66%. The inhibition in vivo at 1 mg/kg in the data set with Nitrosomonas sp. TK794 [10] was determined as 39%.

In the case of `COc1nc(C)nc(C(Cl)(Cl)Cl)n1`, the logP in data set [1] (read-out: logP) stood at 3.98. The inhibition in vivo at 0.5 mg/kg with Nitrosomonas sp. TK794 [4] stood at 32%.

As for `Cc1nc(Oc2ccc(Cl)cc2)nc(C(Cl)(Cl)Cl)n1`, in data set [1] (read-out: logP), the logP was found to be 5.94. Also, the IC50 in the data set with Nitrosomonas europaea [2] was 741 nM. Besides, in the data set with Nitrosomonas europaea [5], the residual activity at 1 mg/kg was 36.1%. Besides, in the data set on Nitrosomonas sp. TK794 [10], the inhibition in vivo at 1 mg/kg is 47%.

For the molecule `CCCCc1nc(N)nc(C(Cl)(Cl)Cl)n1`, the logP in data set [1] (read-out: logP) came out at 4.4. In addition, the IC50 in the data set with Nitrosomonas europaea [2] was 1200 nM. In the data set on Nitrosomonas europaea [5], the residual activity at 1 mg/kg came to 29%. Besides, the inhibition in vivo at 1 mg/kg in the data set with Nitrosomonas sp. TK794 [10] was determined as 39.7%.

In the case of `CNc1nc(-c2ccccc2)nc(C(Cl)(Cl)Cl)n1`, the logP in [1] (read-out: logP) turned out to be 4.7. Also, in the data set with Nitrosomonas europaea [2], the IC50 is 372 nM. Moreover, the residual activity at 0.1 mg/kg in the data set on Nitrosomonas europaea [3] was 53.2%. The inhibition in vivo at 0.5 mg/kg in the data set on Nitrosomonas sp. TK794 [4] came out at 57.1%.

In the case of `CCNc1nc(-c2ccccc2)nc(C(Cl)(Cl)Cl)n1`, in [1] (read-out: logP), the logP worked out at 5.23. In the data set on Nitrosomonas europaea [2], the IC50 is 380 nM. The residual activity at 0.1 mg/kg in the data set with Nitrosomonas europaea [3] was determined as 45.3%. In addition, in the data set on Nitrosomonas sp. TK794 [4], the inhibition in vivo at 0.5 mg/kg came out at 47.8%.

As for `CCCNc1nc(-c2ccccc2)nc(C(Cl)(Cl)Cl)n1`, the logP in [1] (read-out: logP) amounted to 5.75. In the data set with Nitrosomonas europaea [2], the IC50 was 389 nM. For the same molecule, in the data set on Nitrosomonas europaea [3], the residual activity at 0.1 mg/kg is 50.1%. In addition, the inhibition in vivo at 0.5 mg/kg with Nitrosomonas sp. TK794 [4] is 58.1%.

For the molecule `CN(C)c1nc(-c2ccccc2)nc(C(Cl)(Cl)Cl)n1`, the logP in data set [1] (read-out: logP) stood at 5.4. Moreover, in the data set with Nitrosomonas europaea [2], the IC50 was 1700 nM. Moreover, the residual activity at 1 mg/kg with Nitrosomonas europaea [5] is 40.1%. Further, in the data set with Nitrosomonas sp. TK794 [6], the inhibition in vivo at 5 mg/kg is 43%.

The values are drawn from ChEMBL document CHEMBL3045179, “Mode of Action and QSAR Studies of Nitrification Inhibitors” (J Pestic Sci, 1997).
